Experimental data: PubChem BioAssay (NCI)
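Test compounds were applied to cells in 96-well plates for 48 hours at 5 doses. GI50 = concentration required for 50% inhibition of growth. TGI denotes the concentration required for complete inhibition of growth.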

Experiments:
Assay in all cases: NCI-60 cell line screen, 48 h
786-0 renal = system: 786-0 renal
A498 renal = system: A498 renal
ACHN renal = system: ACHN renal
BT-549 breast = system: BT-549 breast
CAKI-1 renal = system: CAKI-1 renal
CCRF-CEM leukemia = system: CCRF-CEM leukemia
DU-145 prostate = system: DU-145 prostate
EKVX NSCLC = system: EKVX NSCLC
HCC-2998 colon = system: HCC-2998 colon
HCT-116 colon = system: HCT-116 colon
HCT-15 colon = system: HCT-15 colon
HL-60(TB) leukemia = system: HL-60(TB) leukemia
HOP-92 NSCLC = system: HOP-92 NSCLC
K-562 leukemia = system: K-562 leukemia
KM12 colon = system: KM12 colon
MCF7 breast = system: MCF7 breast
MDA-MB-231 breast = system: MDA-MB-231 breast
MDA-MB-435 = system: MDA-MB-435
NCI/ADR-RES ovarian = system: NCI/ADR-RES ovarian
OVCAR-4 ovarian = system: OVCAR-4 ovarian
OVCAR-5 ovarian = system: OVCAR-5 ovarian
PC-3 prostate = system: PC-3 prostate
RPMI-8226 leukemia = system: RPMI-8226 leukemia
RXF 393 renal = system: RXF 393 renal
SF-295 CNS = system: SF-295 CNS
SF-539 CNS = system: SF-539 CNS
SK-MEL-28 melanoma = system: SK-MEL-28 melanoma
SK-MEL-5 melanoma = system: SK-MEL-5 melanoma
SK-OV-3 ovarian = system: SK-OV-3 ovarian
SN12C renal = system: SN12C renal
SNB-19 CNS = system: SNB-19 CNS
SNB-75 CNS = system: SNB-75 CNS
TK-10 renal = system: TK-10 renal
UACC-257 melanoma = system: UACC-257 melanoma
UACC-62 melanoma = system: UACC-62 melanoma
UO-31 renal = system: UO-31 renal
A549 NSCLC = system: A549 NSCLC
COLO 205 colon = system: COLO 205 colon
HOP-62 NSCLC = system: HOP-62 NSCLC
HS 578T breast = system: HS 578T breast
HT29 colon = system: HT29 colon
IGROV1 ovarian = system: IGROV1 ovarian
M14 melanoma = system: M14 melanoma
MOLT-4 leukemia = system: MOLT-4 leukemia
NCI-H226 lung = system: NCI-H226 lung
NCI-H23 lung = system: NCI-H23 lung
NCI-H460 lung = system: NCI-H460 lung
NCI-H522 lung = system: NCI-H522 lung
OVCAR-8 ovarian = system: OVCAR-8 ovarian
SF-268 CNS = system: SF-268 CNS
SW-620 colon = system: SW-620 colon
T-47D breast = system: T-47D breast
U251 CNS = system: U251 CNS

COC[C@]12CCC(C)(C)C[C@H]1C1=CC[C@@H]3[C@@]4(C)CCCNC(C)(C)[C@@H]4CC[C@@]3(C)[C@]1(C)CC2
GI50 (786-0 renal): 1610 nM | TGI (786-0 renal): 3300 nM | GI50 (A498 renal): 1710 nM | TGI (A498 renal): 3230 nM | GI50 (ACHN renal): 1730 nM | TGI (ACHN renal): 3120 nM | GI50 (BT-549 breast): 1680 nM | TGI (BT-549 breast): 3110 nM | GI50 (CAKI-1 renal): 1820 nM | TGI (CAKI-1 renal): 3560 nM | GI50 (CCRF-CEM leukemia): 1260 nM | TGI (CCRF-CEM leukemia): 3190 nM | GI50 (DU-145 prostate): 1810 nM | TGI (DU-145 prostate): 3370 nM | GI50 (EKVX NSCLC): 1640 nM | TGI (EKVX NSCLC): 3120 nM | GI50 (HCC-2998 colon): 1310 nM | TGI (HCC-2998 colon): 2760 nM | GI50 (HCT-116 colon): 1090 nM | TGI (HCT-116 colon): 2480 nM | GI50 (HCT-15 colon): 1410 nM | TGI (HCT-15 colon): 2870 nM | GI50 (HL-60(TB) leukemia): 1430 nM | TGI (HL-60(TB) leukemia): 3870 nM | GI50 (HOP-92 NSCLC): 1170 nM | TGI (HOP-92 NSCLC): 2580 nM | GI50 (K-562 leukemia): 350 nM | TGI (K-562 leukemia): 4650 nM | GI50 (KM12 colon): 1790 nM | TGI (KM12 colon): 3480 nM | GI50 (MCF7 breast): 1250 nM | TGI (MCF7 breast): 2820 nM | GI50 (MDA-MB-231 breast): 1890 nM | TGI (MDA-MB-231 breast): 3620 nM | GI50 (MDA-MB-435): 1660 nM | TGI (MDA-MB-435): 3130 nM | GI50 (NCI/ADR-RES ovarian): 1730 nM | TGI (NCI/ADR-RES ovarian): 3480 nM | GI50 (OVCAR-4 ovarian): 1700 nM | TGI (OVCAR-4 ovarian): 3340 nM | GI50 (OVCAR-5 ovarian): 1670 nM | TGI (OVCAR-5 ovarian): 3130 nM | GI50 (PC-3 prostate): 1310 nM | TGI (PC-3 prostate): 2640 nM | GI50 (RPMI-8226 leukemia): 1310 nM | TGI (RPMI-8226 leukemia): 3650 nM | GI50 (RXF 393 renal): 1370 nM | TGI (RXF 393 renal): 2880 nM | GI50 (SF-295 CNS): 1730 nM | TGI (SF-295 CNS): 3210 nM | GI50 (SF-539 CNS): 1560 nM | TGI (SF-539 CNS): 3050 nM | GI50 (SK-MEL-28 melanoma): 1670 nM | TGI (SK-MEL-28 melanoma): 3070 nM | GI50 (SK-MEL-5 melanoma): 1580 nM | TGI (SK-MEL-5 melanoma): 3050 nM | GI50 (SK-OV-3 ovarian): 1800 nM | TGI (SK-OV-3 ovarian): 3390 nM | GI50 (SN12C renal): 1510 nM | TGI (SN12C renal): 3070 nM | GI50 (SNB-19 CNS): 1760 nM | TGI (SNB-19 CNS): 3300 nM | GI50 (SNB-75 CNS): 1530 nM | TGI (SNB-75 CNS): 3410 nM | GI50 (TK-10 renal): 1810 nM | TGI (TK-10 renal): 3530 nM | GI50 (UACC-257 melanoma): 1910 nM | TGI (UACC-257 melanoma): 3820 nM | GI50 (UACC-62 melanoma): 1620 nM | TGI (UACC-62 melanoma): 3120 nM | GI50 (UO-31 renal): 1410 nM | TGI (UO-31 renal): 2790 nM

ClC(Cl)c1nc(-c2cccs2)n2nc(-c3ccccc3)cc2n1
GI50 (786-0 renal): 2370 nM | TGI (786-0 renal): > 100000 nM | GI50 (A498 renal): 1250 nM | TGI (A498 renal): 2530 nM | GI50 (A549 NSCLC): 680 nM | TGI (A549 NSCLC): 2730 nM | GI50 (ACHN renal): 274 nM | TGI (ACHN renal): 1050 nM | GI50 (BT-549 breast): 8730 nM | TGI (BT-549 breast): > 100000 nM | GI50 (CAKI-1 renal): 1130 nM | TGI (CAKI-1 renal): 4010 nM | GI50 (CCRF-CEM leukemia): 5920 nM | TGI (CCRF-CEM leukemia): > 100000 nM | GI50 (COLO 205 colon): 476 nM | TGI (COLO 205 colon): 2070 nM | GI50 (DU-145 prostate): 293 nM | TGI (DU-145 prostate): 770 nM | GI50 (HCC-2998 colon): 464 nM | TGI (HCC-2998 colon): 1740 nM | GI50 (HCT-116 colon): 1300 nM | TGI (HCT-116 colon): 6870 nM | GI50 (HCT-15 colon): 1060 nM | TGI (HCT-15 colon): 3630 nM | GI50 (HL-60(TB) leukemia): 267 nM | TGI (HL-60(TB) leukemia): 1310 nM | GI50 (HOP-62 NSCLC): 419 nM | TGI (HOP-62 NSCLC): 2990 nM | GI50 (HOP-92 NSCLC): 444 nM | TGI (HOP-92 NSCLC): 2480 nM | GI50 (HS 578T breast): 1600 nM | TGI (HS 578T breast): 4710 nM | GI50 (HT29 colon): 355 nM | TGI (HT29 colon): 1750 nM | GI50 (IGROV1 ovarian): 2650 nM | TGI (IGROV1 ovarian): > 100000 nM | GI50 (K-562 leukemia): 2130 nM | TGI (K-562 leukemia): > 100000 nM | GI50 (KM12 colon): 2480 nM | TGI (KM12 colon): 8340 nM | GI50 (M14 melanoma): 4350 nM | TGI (M14 melanoma): > 100000 nM | GI50 (MCF7 breast): 425 nM | TGI (MCF7 breast): 3530 nM | GI50 (MDA-MB-231 breast): 500 nM | TGI (MDA-MB-231 breast): 2750 nM | GI50 (MDA-MB-435): 1470 nM | TGI (MDA-MB-435): 2990 nM | GI50 (MOLT-4 leukemia): 2820 nM | TGI (MOLT-4 leukemia): > 100000 nM | GI50 (NCI-H226 lung): > 100000 nM | TGI (NCI-H226 lung): > 100000 nM | GI50 (NCI-H23 lung): 1470 nM | TGI (NCI-H23 lung): 4440 nM | GI50 (NCI-H460 lung): 299 nM | TGI (NCI-H460 lung): 974 nM | GI50 (NCI-H522 lung): > 100000 nM | TGI (NCI-H522 lung): > 100000 nM | GI50 (NCI/ADR-RES ovarian): 912 nM | TGI (NCI/ADR-RES ovarian): 4090 nM | GI50 (OVCAR-4 ovarian): 2020 nM | TGI (OVCAR-4 ovarian): 5060 nM | GI50 (OVCAR-5 ovarian): 1740 nM | TGI (OVCAR-5 ovarian): 5120 nM | GI50 (OVCAR-8 ovarian): 1150 nM | TGI (OVCAR-8 ovarian): > 100000 nM | GI50 (PC-3 prostate): 1180 nM | TGI (PC-3 prostate): 3750 nM | GI50 (RPMI-8226 leukemia): 472 nM | TGI (RPMI-8226 leukemia): 2560 nM | GI50 (RXF 393 renal): 477 nM | TGI (RXF 393 renal): 1690 nM | GI50 (SF-268 CNS): 1600 nM | TGI (SF-268 CNS): 5180 nM | GI50 (SF-295 CNS): 801 nM | TGI (SF-295 CNS): 3390 nM | GI50 (SF-539 CNS): 1100 nM | TGI (SF-539 CNS): 2940 nM | GI50 (SK-MEL-28 melanoma): 1690 nM | TGI (SK-MEL-28 melanoma): 3220 nM | GI50 (SK-MEL-5 melanoma): > 100000 nM | TGI (SK-MEL-5 melanoma): > 100000 nM | GI50 (SK-OV-3 ovarian): 1890 nM | TGI (SK-OV-3 ovarian): 6660 nM | GI50 (SN12C renal): > 100000 nM | TGI (SN12C renal): > 100000 nM | GI50 (SNB-19 CNS): 635 nM | TGI (SNB-19 CNS): 3710 nM | GI50 (SW-620 colon): 681 nM | TGI (SW-620 colon): 3490 nM | GI50 (T-47D breast): 1510 nM | TGI (T-47D breast): 5720 nM | GI50 (TK-10 renal): 3230 nM | TGI (TK-10 renal): 6250 nM | GI50 (U251 CNS): 326 nM | TGI (U251 CNS): 1820 nM | GI50 (UACC-257 melanoma): 2400 nM | TGI (UACC-257 melanoma): 5680 nM | GI50 (UO-31 renal): 1190 nM | TGI (UO-31 renal): 4520 nM
